From patent publication US5231082A, “Cyclic peptide with anti-metastasis activity” (Monsanto Company, priority 1989, dated 1993)
Peptide text beside a SMILES is read from it.

Assays:
[1] = test system: HT-1080 cells; assay: In vitro cell attachment assays; assay type: cell-based, human
Protocol: HT-1080 cells from a human fibrosarcoma (Rasheed, S. et al., Cancer (Philadelphia) 33:1027 (1974) are maintained in Dulbecco's modified Eagle's medium (DMEM) supplemented with 10% fetal calf serum. After the cells are grown to 80% confluency, they are washed with 0.02M phosphate buffer, pH 7.4, without CA^+2 and Mg^+2 and detached with a solution of 0.025% trypsin plus 0.025% ethylenediaminetetraacetic acid (EDTA; GIBCO). The cells are then pelleted by low speed centrifugation and resuspended in Eagle's minimal essential medium (EMEM) containing 0.02% bovine serum albumin (BSA, Sigma Chemical Co., St. Louis, Mo.). Cell attachment assays are performed as described in Klebe, R.J. Nature (London) 250:248 (1974), on tissue culture plastic substrates by using 16-mm Falcon tissue culture wells (Fisher Scientific Co., Pittsburg, Pa.) incubated with various peptides or with laminin in lmL of EMEM containing 0.02% BSA for 1 or 2 hours at 37° C. Cells (10^5 in 0.1 mL) are added to the wells, and the solution is incubated for an additional 1 hour at 37° C. in 95% air and 5% CO2. Subsequently, the wells are rinsed 3 times with lmL of phosphate-buffered saline (PBS) to remove unattached cells. Attached cells are trypsinized and counted electronically (Coulter, ZBI). […]

[2] = test system: 67 kd laminin receptor; assay: Laminin receptor binding / elution from laminin affinity columns
[3] = test system: B16F10 melanoma cells; assay: Lung tumor colonization assay; assay type: in vivo, mice
Protocol: B16F10 melanoma cells, obtained from I.J. Fidler, M.D., Anderson Hospital, Houston, TX, are propagated under standard culture conditions. The lung tumor colonization assay is carried out as described in Fidler, I.J., Nature (London) (New Biol.) 242:148 (1973). Peptides are dissolved at 5 mg/mL in PBS and are filter-sterilized. The suspension of B16F10 cells (5×10^5) in 0.1 mL of DMEM is mixed with 0.1 mL of the peptide (or .1 ml PBS in control), incubated for 5 minutes at room temperature, and then injected into the tail vein of syngeneic C57BL/6 female mice (Jackson Labs., Bar Harbor, Me.) at 6 weeks of age. Each treatment and control group consists of eight mice. Three weeks after the injections, the mice are killed and the number of pulmonary tumors on the surface of the lungs counted.

## CC[C@H](C)[C@@H]1NC(=O)[C@H](Cc2ccc(O)cc2)NC(=O)[C@@H](CCCNC(=N)N)NC(=O)[C@H](CO)NC(=O)CNC1=O [cyclic peptide of the invention] (HELM PEPTIDE1{G.S.[dR].Y.I}$PEPTIDE1,PEPTIDE1,1:R1-5:R2$$$V2.0)
[1]; HT-1080 cells, compared with the straight chain peptide, FIG. 1
  affinity for cell adhesion: higher affinity for cell adhesion than the straight chain peptide
[1]; summary statement
  blocking of cell adhesion and laminin-mediated adhesion: blocks cell adhesion, laminin-mediated adhesion
[2]
  elution of laminin receptor from laminin affinity columns: elutes the laminin receptor from laminin affinity columns
[2]; 67 kd laminin receptor
  binding of laminin receptor: binds the 67 kd laminin receptor
[3]; B16F10 cells mixed with peptide, injected into tail vein of C57BL/6 female mice, counted three weeks after injection, compared with linear YIGSR-NH2, FIG. 2
  in vivo antimetastatic effectiveness (number of pulmonary tumors on the surface of the lungs): at least twice as effective as linear YIGSR-NH2
[3]; summary statement
  melanoma cell colonization: blocks
